Laboratory results: the supplement of paper PMC11061612

Legend:
[1] = system: EB2 (Burkitt's Lymphoma); test: Bliss excess, mean over the matrix (fraction); higher = more synergy
How it was run: (§1)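 Bliss excess equals the observed combination effect minus the expected value EA + EB − EA·EB, where EA and EB are the effects of each agent alone. Combination Emax is the second-highest inhibition within the matrix. Inhibition was scaled from CellTiter-Glo 2.0 luminescence, with 0 set by vehicle wells and 1 by blank wells, after 72 hours of two-drug dosing of cells plated in 1536-well plates.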

[2] = system: JHH-2 (Hepatocellular Carcinoma); test: as above
How it was run: as §1

[3] = system: NB13 (Neuroblastoma); test: as above
How it was run: as §1

[4] = system: NCI-H1651 (Lung Adenocarcinoma); test: as above
How it was run: as §1

[5] = system: NCI-H441 (Lung Adenocarcinoma); test: as above
How it was run: as §1

[6] = system: PEO1 (Ovarian Carcinoma); test: as above
How it was run: as §1

[7] = system: SK-HEP-1 (Hepatocellular Carcinoma); test: as above
How it was run: as §1

[8] = system: SW620 (Colorectal Carcinoma); test: as above
How it was run: as §1

[9] = system: UACC-812 (Breast Carcinoma); test: as above
How it was run: as §1

[10] = system: NB13 (Neuroblastoma); test: combination Emax (second highest fraction inhibited in the dose matrix, 72 h); higher = more inhibition; extreme values may be limits of the assay
How it was run: as §1

Compound | Bliss excess [1] | Bliss excess [2] | Bliss excess [3] | Bliss excess [4] | Bliss excess [5] | Bliss excess [6] | Bliss excess [7] | Bliss excess [8] | Bliss excess [9] | combination Emax [10]
C=CCn1c(=O)c2cnc(Nc3ccc(N4CCN(C)CC4)cc3)nc2n1-c1cccc(C(C)(C)O)n1 [AZD1775] + CCc1c2c(nc3ccc(O)cc13)-c1cc3c(c(=O)n1C2)COC(=O)[C@]3(O)CC [SN-38] (first compound max 1 µM, partner max 0.3 µM) | -0.0507 | 0.106 | -0.0592 | -0.0342 | -0.0906 | -0.0267 | -0.0134 | -0.0563 | -0.0472 | 0.853
C=CCn1c(=O)c2cnc(Nc3ccc(N4CCN(C)CC4)cc3)nc2n1-c1cccc(C(C)(C)O)n1 [AZD1775] + Nc1ccn([C@@H]2O[C@H](CO)[C@@H](O)C2(F)F)c(=O)n1 [Gemcitabine] (first compound max 1 µM, partner max 0.3 µM) | 0.0066 | 0.0264 |  | -0.0104 | -0.0298 | 0.0712 | -0.029 | 0.0165 | -0.0613 | 
CN(CCO)CC[C@H](CSc1ccccc1)Nc1ccc(S(=O)(=O)NC(=O)c2ccc(N3CCC([C@@H](O)c4ccccc4-c4ccc(Cl)cc4)CC3)cc2)cc1S(=O)(=O)C(F)(F)F [AZD4320] + CS(=O)(=O)CCNCc1ccc(-c2ccc3ncnc(Nc4ccc(OCc5cccc(F)c5)c(Cl)c4)c3c2)o1 [Lapatinib] (first compound max 1 µM, 7x7, partner max 10 µM) | -0.104 | 0.0312 | 0.0537 | 0.0395 | -0.0156 | 0.0311 | -0.0958 | -0.0116 | -0.0066 | 0.989
Cc1c2c(nn1C)CSCc1cc(n(C)n1)CSc1cc(c3ccccc3c1)OCCCc1c(C(=O)O)n(C)c3c-2c(Cl)ccc13 [AZD5991] + CC(=O)O[C@H]1C(=O)[C@@]2(C)[C@H]([C@H](OC(=O)c3ccccc3)[C@]3(O)C[C@H](OC(=O)[C@H](O)[C@@H](NC(=O)c4ccccc4)c4ccccc4)C(C)=C1C3(C)C)[C@]1(OC(C)=O)CO[C@@H]1C[C@@H]2O [Paclitaxel] (first compound max 1 µM, 7x7, partner max 3 µM) | -0.083 | 0.017 |  | -0.0345 | -0.0193 | -0.0624 | -0.0587 | 0.0435 | 0.0968 | 
Cc1c2c(nn1C)CSCc1cc(n(C)n1)CSc1cc(c3ccccc3c1)OCCCc1c(C(=O)O)n(C)c3c-2c(Cl)ccc13 [AZD5991] + CS(=O)(=O)CCNCc1ccc(-c2ccc3ncnc(Nc4ccc(OCc5cccc(F)c5)c(Cl)c4)c3c2)o1 [Lapatinib] (first compound max 1 µM, 7x7, partner max 10 µM) | -0.0287 | -0.063 | -0.0239 | -0.0015 | -0.0054 | -0.0352 | 0.0191 | -0.043 | 0.0603 | 0.527
Cc1c2c(nn1C)CSCc1cc(n(C)n1)CSc1cc(c3ccccc3c1)OCCCc1c(C(=O)O)n(C)c3c-2c(Cl)ccc13 [AZD5991] + Nc1ccn([C@@H]2O[C@H](CO)[C@@H](O)C2(F)F)c(=O)n1 [Gemcitabine] (first compound max 1 µM, 7x7, partner max 0.3 µM) | -0.0405 | -0.005 |  | 0.0582 | 0.0106 | -0.0523 | -0.109 | -0.0217 | -0.0041 | 
C[C@@H]1COCCN1c1cc(C2([S@](C)(=N)=O)CC2)nc(-c2ccnc3[nH]ccc23)n1 [AZD6738] + C1CC(C1)(C(=O)[O-])C(=O)[O-].N.N.[Pt+2] [Carboplatin] (first compound max 10 µM, 7x7, partner max 10 µM) | -0.0316 | -0.0309 | -0.0955 | -0.0327 | -0.0436 | -0.0595 | -0.0469 | -0.0461 | -0.0423 | 0.81
C[C@@H]1COCCN1c1cc(C2([S@](C)(=N)=O)CC2)nc(-c2ccnc3[nH]ccc23)n1 [AZD6738] + Nc1ccn([C@@H]2O[C@H](CO)[C@@H](O)C2(F)F)c(=O)n1 [Gemcitabine] (first compound max 10 µM, 7x7, partner max 0.3 µM) | 0.0068 | 0.0069 |  | 0.039 | 0.0418 | 0.0764 | 0.0557 | 0.0454 | 0.0592 | 
C[C@@H](Nc1cc(F)cc(F)c1)c1cc(C(=O)N(C)C)cc2c(=O)cc(N3CCOCC3)oc12 [AZD8186] + C1CN(CCC1(C(=O)N[C@@H](CCO)C2=CC=C(C=C2)Cl)N)C3=NC=NC4=C3C=CN4 [AZD5363] (first compound max 10 µM, 7x7, partner max 10 µM) | -0.0292 | -0.0637 |  | -0.0302 | -0.0392 | -0.0405 | -0.0291 | -0.0135 | -0.0187 | 
C[C@@H](Nc1cc(F)cc(F)c1)c1cc(C(=O)N(C)C)cc2c(=O)cc(N3CCOCC3)oc12 [AZD8186] + CC(=O)c1c(C)c2cnc(Nc3ccc(N4CCNCC4)cn3)nc2n(C2CCCC2)c1=O [Palbociclib] (first compound max 10 µM, 7x7, partner max 10 µM) | 0.0045 | -0.0282 |  | -0.0192 | 0.0155 | -0.026 | -0.0155 | 0.0238 | 0.0506 | 
C[C@@H](Oc1cc(-c2cnn(C3CCNCC3)c2)cnc1N)c1c(Cl)ccc(F)c1Cl [Crizotinib] + CC1=C(C(=CC=C1)Cl)NC(=O)C2=CN=C(S2)NC3=CC(=NC(=N3)C)N4CCN(CC4)CCO [Dasatinib] (first compound max 10 µM, 7x7, partner max 2 µM) | 0.0112 | -0.0101 | -0.06 | -0.0149 | 0.0104 | -0.0226 | -0.0098 | 0.0171 | -0.0135 | 0.801
C[C@@H](Oc1cc(-c2cnn(C3CCNCC3)c2)cnc1N)c1c(Cl)ccc(F)c1Cl [Crizotinib] + Cn1cnc2c(F)c(Nc3ccc(Br)cc3Cl)c(C(=O)NOCCO)cc21 [Selumetinib] (first compound max 10 µM, 7x7, partner max 10 µM) | -0.0748 | 0.0094 | -0.104 | -0.0478 | 0.0148 | -0.0013 | -0.0968 | 0.0065 | -0.0437 | 0.804
CS(=O)(=O)CCNCc1ccc(-c2ccc3ncnc(Nc4ccc(OCc5cccc(F)c5)c(Cl)c4)c3c2)o1 [Lapatinib] + Cn1cnc2c(F)c(Nc3ccc(Br)cc3Cl)c(C(=O)NOCCO)cc21 [Selumetinib] (first compound max 10 µM, 7x7, partner max 10 µM) | -0.0474 | -0.0273 | -0.0311 | -0.0355 | -0.0353 | -0.0453 | -0.0163 | -0.0193 | -0.0001 | 0.521
O=C(c1cc(Cc2n[nH]c(=O)c3ccccc23)ccc1F)N1CCN(C(=O)C2CC2)CC1 [Olaparib] + CC1(C)CCC(CN2CCN(c3ccc(C(=O)NS(=O)(=O)c4ccc(NCC5CCOCC5)c([N+](=O)[O-])c4)c(Oc4cnc5[nH]ccc5c4)c3)CC2)=C(c2ccc(Cl)cc2)C1 [Venetoclax] (first compound max 10 µM, 7x7, partner max 1 µM) | -0.0324 | -0.0527 |  | 0.001 | -0.0407 | -0.0786 | -0.0619 | -0.0533 | -0.0202 | 
O=C(c1cc(Cc2n[nH]c(=O)c3ccccc23)ccc1F)N1CCN(C(=O)C2CC2)CC1 [Olaparib] + CN(CC[C@H](CSC1=CC=CC=C1)NC2=C(C=C(C=C2)S(=O)(=O)NC(=O)C3=CC=C(C=C3)N4CCC(CC4)[C@H](C5=CC=CC=C5C6=CC=C(C=C6)Cl)O)S(=O)(=O)C(F)(F)F)CCO [AZD4320] (first compound max 10 µM, 7x7, partner max 1 µM) | -0.0537 | -0.0363 |  | 0.0253 | -0.0587 | -0.083 | 0.0491 | -0.0535 | -0.0086 | 
O=C(c1cc(Cc2n[nH]c(=O)c3ccccc23)ccc1F)N1CCN(C(=O)C2CC2)CC1 [Olaparib] + COc1nnc2ccc(N3CCC(c4ccc(OCCN5CCN(C)C(=O)[C@H]5C)cc4)CC3)nn12 [AZD5153] (first compound max 10 µM, 7x7, partner max 1 µM) | -0.0329 | -0.0195 |  | -0.0044 | -0.0779 | -0.0367 | 0.0116 | -0.0506 | -0.0384 | 
O=C(c1cc(Cc2n[nH]c(=O)c3ccccc23)ccc1F)N1CCN(C(=O)C2CC2)CC1 [Olaparib] + Cc1c2c(nn1C)CSCc1cc(n(C)n1)CSc1cc(c3ccccc3c1)OCCCc1c(C(=O)O)n(C)c3c-2c(Cl)ccc13 [AZD5991] (first compound max 10 µM, 7x7, partner max 1 µM) | -0.0266 | -0.0539 |  | -0.0207 | -0.054 | -0.069 | -0.0101 | -0.0572 | -0.0301 | 
Cc1nc(-c2cn3c(n2)-c2ccc(-c4cnn(C(C)(C)C(N)=O)c4)cc2OCC3)n(C(C)C)n1 [Taselisib] + O=C(Nc1ccc2[nH]nc(-c3ccncc3)c2c1)[C@@H]1CCN(CC(=O)N2CCN(c3ccc(-c4ncccn4)cc3)CC2)C1 [SCH772984] (first compound max 10 µM, 7x7, partner max 5 µM) | 0.0182 | -0.0398 | 0.0664 | 0.0132 | 0.0123 | 0.0874 | 0.0372 | 0.0518 | 0.0095 | 0.424
CC1(C)CCC(CN2CCN(c3ccc(C(=O)NS(=O)(=O)c4ccc(NCC5CCOCC5)c([N+](=O)[O-])c4)c(Oc4cnc5[nH]ccc5c4)c3)CC2)=C(c2ccc(Cl)cc2)C1 [Venetoclax] + CS(=O)(=O)CCNCc1ccc(-c2ccc3ncnc(Nc4ccc(OCc5cccc(F)c5)c(Cl)c4)c3c2)o1 [Lapatinib] (first compound max 1 µM, 7x7, partner max 10 µM) | -0.039 | -0.0664 | -0.028 | -0.0182 | -0.0292 | -0.0673 | 0.0013 | -0.0409 | 0.0062 | 0.43
